target: Bcl-2 protein (Homo sapiens (Human), UniProt P10415); assay: Bcl-2 binding TR-FRET (Time-Resolved Fluorescence-Resonance-Energy-Transfer) assay; conditions: inhibition constant for binding to Bcl-2 protein
Excerpt: The smaller the Ki value, the greater is the binding affinity.

Sequence of Bcl-2 protein (P10415 whole entry): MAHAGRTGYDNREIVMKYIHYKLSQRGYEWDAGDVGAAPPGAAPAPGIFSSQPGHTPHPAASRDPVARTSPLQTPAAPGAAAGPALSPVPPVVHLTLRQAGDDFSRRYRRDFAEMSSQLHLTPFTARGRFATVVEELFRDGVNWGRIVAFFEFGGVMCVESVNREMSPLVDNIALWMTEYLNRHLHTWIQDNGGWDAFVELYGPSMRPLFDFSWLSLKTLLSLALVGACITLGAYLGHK

| Compound | Ki |
| --- | --- |
| CC1(C)CCC(CN2CCN(c3ccc(C(=O)NS(=O)(=O)c4ccc(NC5CN(C6CCOCC6)C5)c([N+](=O)[O-])c4)c(Oc4cnc5[nH]ccc5c4)c3)CC2)=C(c2ccc(Cl)cc2)C1 [Compound 116, 4-(4-{[2-(4-chlorophenyl)-4,4-dimethylcyclohex-1-en-1-yl]methyl}piperazin-1-yl)-N-({3-nitro-4-[(1-tetrahydro-2H-pyran-4-ylazetidin-3-yl)amino]phenyl}sulfonyl)-2-(1H-pyrrolo[2,3-b]pyridin-5-yloxy)benzamide] | < 0.01 nM |
| CC1(C)CCC(CN2CCN(c3ccc(C(=O)NS(=O)(=O)c4ccc(NC5CN(C6CCOC6)C5)c([N+](=O)[O-])c4)c(Oc4cnc5[nH]ccc5c4)c3)CC2)=C(c2ccc(Cl)cc2)C1 (centres unmarked) [Compound 117, 4-(4-{[2-(4-chlorophenyl)-4,4-dimethylcyclohex-1-en-1-yl]methyl}piperazin-1-yl)-N-({3-nitro-4-[(1-tetrahydrofuran-3-ylazetidin-3-yl)amino]phenyl}sulfonyl)-2-(1H-pyrrolo[2,3-b]pyridin-5-yloxy)benzamide] | < 0.01 nM |
| CC1(C)CCC(CN2CCN(c3ccc(C(=O)NS(=O)(=O)c4ccc(NC[C@H]5CCN(C6CCOCC6)C5)c([N+](=O)[O-])c4)c(Oc4cnc5[nH]ccc5c4)c3)CC2)=C(c2ccc(Cl)cc2)C1 [Compound 118, 4-(4-{[2-(4-chlorophenyl)-4,4-dimethylcyclohex-1-en-1-yl]methyl}piperazin-1-yl)-N-{[3-nitro-4-({[(3R)-1-tetrahydro-2H-pyran-4-ylpyrrolidin-3-yl]methyl}amino)phenyl]sulfonyl}-2-(1H-pyrrolo[2,3-b]pyridin-5-yloxy)benzamide] | < 0.01 nM |
| CC1(C)CCC(c2ccc(Cl)cc2)=C(CN2CCN(c3ccc(C(=O)NS(=O)(=O)c4ccc(OCC5(F)CCOCC5)c([N+](=O)[O-])c4)c(Oc4cnc5[nH]ccc5c4)c3)CC2)C1 [Compound 119, 4-(4-{[2-(4-chlorophenyl)-5,5-dimethylcyclohex-1-en-1-yl]methyl}piperazin-1-yl)-N-({4-[(4-fluorotetrahydro-2H-pyran-4-yl)methoxy]-3-nitrophenyl}sulfonyl)-2-(1H-pyrrolo[2,3-b]pyridin-5-yloxy)benzamide] | < 0.01 nM |
| CC1(C)CCC(CN2CCN(c3ccc(C(=O)NS(=O)(=O)c4ccc(NC[C@H]5CC[C@H](O)CC5)c([N+](=O)[O-])c4)c(Oc4cnc5[nH]ccc5c4)c3)CC2)=C(c2ccc(Cl)cc2)C1 [Compound 120] | < 0.01 nM |
| CC1(C)CCC(CN2CCN(c3ccc(C(=O)NS(=O)(=O)c4ccc(N[C@H]5CC[C@@H](NC6CC6)CC5)c([N+](=O)[O-])c4)c(Oc4cnc5[nH]ccc5c4)c3)CC2)=C(c2ccc(Cl)cc2)C1 [Compound 122, cis-4-(4-{[2-(4-chlorophenyl)-4,4-dimethylcyclohex-1-en-1-yl]methyl}piperazin-1-yl)-N-[(4-{[4-(cyclopropylamino)cyclohexyll]amino}-3-nitrophenyl)sulfonyll]-2-(1H-pyrrolo[2,3-b]pyridin-5-yloxy)benzamide] | < 0.01 nM |
| CC1(C)CCC(CN2CCN(c3ccc(C(=O)NS(=O)(=O)c4cnc(O[C@H]5CC[C@H](N6CCOCC6)CC5)c(Br)c4)c(Oc4cnc5[nH]ccc5c4)c3)CC2)=C(c2ccc(Cl)cc2)C1 [Compound 124] | < 0.01 nM |
| CC1(C)CCC(CN2CCN(c3ccc(C(=O)NS(=O)(=O)c4ccc(OCC5(F)CCN(C(=O)OC(C)(C)C)CC5)c([N+](=O)[O-])c4)c(Oc4cnc5[nH]ccc5c4)c3)CC2)=C(c2ccc(Cl)cc2)C1 [Compound 126, tert-butyl 4-{[4-({[4-(4-{[2-(4-chlorophenyl)-4,4-dimethylcyclohex-1-en-1-yl]methyl}piperazin-1-yl)-2-(1H-pyrrolo[2,3-b]pyridin-5-yloxy)benzoyl]amino}sulfonyl)-2-nitrophenoxy]methyl}-4-fluoropiperidine-1-carboxylate] | < 0.01 nM |
| CC1(C)CCC(CN2CCN(c3ccc(C(=O)NS(=O)(=O)c4ccc(OCC5(F)CCNCC5)c([N+](=O)[O-])c4)c(Oc4cnc5[nH]ccc5c4)c3)CC2)=C(c2ccc(Cl)cc2)C1 [Compound 127, 4-(4-{[2-(4-chlorophenyl)-4,4-dimethylcyclohex-1-en-1-yl]methyl}piperazin-1-yl)-N-({4-[(4-fluoropiperidin-4-yl)methoxy]-3-nitrophenyl}sulfonyl)-2-(1H-pyrrolo[2,3-b]pyridin-5-yloxy)benzamide] | < 0.01 nM |
| CC1(C)CCC(CN2CCN(c3ccc(C(=O)NS(=O)(=O)c4ccc(N[C@@H]5CCN(C6CCOCC6)C5)c([N+](=O)[O-])c4)c(Oc4cnc5[nH]ccc5c4)c3)CC2)=C(c2ccc(Cl)cc2)C1 [Compound 130, 4-(4-{[2-(4-chlorophenyl)-4,4-dimethylcyclohex-1-en-1-yl]methyl}piperazin-1-yl)-N-[(3-nitro-4-{[(3R)-1-tetrahydro-2H-pyran-4-ylpyrrolidin-3-yl]amino}phenyl)sulfonyl]-2-(1H-pyrrolo[2,3-b]pyridin-5-yloxy)benzamide] | < 0.01 nM |
| CC1(C)CCC(CN2CCN(c3ccc(C(=O)NS(=O)(=O)c4ccc(N[C@@H]5CCN(C6CCOC(C)(C)C6)C5)c([N+](=O)[O-])c4)c(Oc4cnc5[nH]ccc5c4)c3)CC2)=C(c2ccc(Cl)cc2)C1 (stereo partly drawn) [Compound 131, 4-(4-{[2-(4-chlorophenyl)-4,4-dimethylcyclohex-1-en-1-yl]methyl}piperazin-1-yl)-N-[(4-{[(3R)-1-(2,2-dimethyltetrahydro-2H-pyran-4-yl)pyrrolidin-3-yl]amino}-3-nitrophenyl)sulfonyl]-2-(1H-pyrrolo[2,3-b]pyridin-5-yloxy)benzamide] | < 0.01 nM |
| CC1(C)CCC(CN2CCN(c3ccc(C(=O)NS(=O)(=O)c4ccc(N[C@H]5CCN(C6CCOCC6)C5)c([N+](=O)[O-])c4)c(Oc4cnc5[nH]ccc5c4)c3)CC2)=C(c2ccc(Cl)cc2)C1 [Compound 132, 4-(4-{[2-(4-chlorophenyl)-4,4-dimethylcyclohex-1-en-1-yl]methyl}piperazin-1-yl)-N-[(3-nitro-4-{[(3S)-1-tetrahydro-2H-pyran-4-ylpyrrolidin-3-yl]amino}phenyl)sulfonyl]-2-(1H-pyrrolo[2,3-b]pyridin-5-yloxy)benzamide] | < 0.01 nM |
| CC1(C)CCC(CN2CCN(c3ccc(C(=O)NS(=O)(=O)c4ccc(N[C@H]5CCN(C6CCOC(C)(C)C6)C5)c([N+](=O)[O-])c4)c(Oc4cnc5[nH]ccc5c4)c3)CC2)=C(c2ccc(Cl)cc2)C1 (stereo partly drawn) [Compound 133, 4-(4-{[2-(4-chlorophenyl)-4,4-dimethylcyclohex-1-en-1-yl]methyl}piperazin-1-yl)-N-[(4-{[(3S)-1-(2,2-dimethyltetrahydro-2H-pyran-4-yl)pyrrolidin-3-yl]amino}-3-nitrophenyl)sulfonyl]-2-(1H-pyrrolo[2,3-b]pyridin-5-yloxy)benzamide] | < 0.01 nM |
| CN1CCOC(CNc2ccc(S(=O)(=O)NC(=O)c3ccc(N4CCN(CC5=C(c6ccc(Cl)cc6)CC(C)(C)CC5)CC4)cc3Oc3cnc4[nH]ccc4c3)cc2[N+](=O)[O-])C1 (centres unmarked) [Compound 134, 4-(4-{[2-(4-chlorophenyl)-4,4-dimethylcyclohex-1-en-1-yl]methyl}piperazin-1-yl)-N-[(4-{[(4-methylmorpholin-2-yl)methyl]amino}-3-nitrophenyl)sulfonyl]-2-(1H-pyrrolo[2,3-b]pyridin-5-yloxy)benzamide] | < 0.01 nM |
